Assays:
HG23 cells = assay: Nonspecific cytotoxic effects in HG23 cells; assay type: cell-based; settings: cytotoxic dose for 50% cell death (CC50), 1 to 100 μM, 48 h, CytoTox 96 kit and crystal violet staining, average of at least two determinations
NV 3CLpro = NV 3CLpro (Norwalk virus, UniProt Q83883); assay: FRET protease assay, NV 3CLpro; assay type: biochemical; settings: for Activity against NV 3CLpro and in cell based assays (in words): summary of Table 1; for Fold less active than compounds 13/25: n-pentyl chain versus m-chlorophenyl
NV 3CLpro, sequence (Q83883 1101-1281): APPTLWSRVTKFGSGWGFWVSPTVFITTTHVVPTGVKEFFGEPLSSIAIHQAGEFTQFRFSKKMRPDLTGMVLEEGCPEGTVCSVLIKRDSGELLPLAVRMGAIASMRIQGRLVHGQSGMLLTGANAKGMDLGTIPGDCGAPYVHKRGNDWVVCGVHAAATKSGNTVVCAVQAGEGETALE

| Compound | TC50 (EC50) (HG23 cells) [µM] | also measured |
| --- | --- | --- |
| O=C[C@@H]1CCC(=O)NCCCCCCC(c2cccc(Cl)c2)OC(=O)NC2(CCCCC2)C(=O)N1 (stereo partly drawn) [Compound 19, (21S)-10-(3-Chlorophenyl)-8,18,23-trioxo-9-oxa-7,17,22-triazaspiro [5.17] tricosane-21-carbaldehyde] | 53.3 | Activity against NV 3CLpro and in cell based assays (in words) (NV 3CLpro): inactive |
| C[C@@H]1NC(=O)OC(c2cccc(Cl)c2)CCCCCNC(=O)CC[C@@H](C=O)NC1=O (stereo partly drawn) [Compound 16, (4S, 7S)-17-(3-Chlorophenyl)-4-methyl-2,5,10-trioxo-1-oxa-3,6,11-triazacycloheptadecane-7-carbaldehyde] | >100 | – |
| O=C[C@@H]1CCC(=O)NCCCCCC(c2cccc(Cl)c2)OC(=O)NC2(CCCCC2)C(=O)N1 (stereo partly drawn) [Compound 18, (20S)-10-(3-Chlorophenyl)-8,17,22-trioxo-9-oxa-7,16,21-triazaspiro[5.16]docosane-20-carbaldehyde] | 62.4 | Activity against NV 3CLpro and in cell based assays (in words) (NV 3CLpro): inactive |
| O=C1CC[C@@H](C(O)S(=O)(=O)[O-])NC(=O)C2(CCCCC2)NC(=O)OC(c2cccc(Cl)c2)CCCCCN1.[Na+] (stereo partly drawn) [Compound 26, Sodium ((20S)-10-(3-chlorophenyl)-8,17,22-trioxo-9-oxa-7,16,21-triazaspiro [5.16]docosan-20-yl) (hydroxy) methanesulfonate] | 48.5 | Activity against NV 3CLpro and in cell based assays (in words) (NV 3CLpro): inactive |
| CC(C)C[C@@H]1NC(=O)OC(CCCc2ccccc2)CCCCCNC(=O)CC[C@@H](C(O)S(=O)(=O)[O-])NC1=O.[Na+] (stereo partly drawn) [Compound 28, Sodium hydroxyl ((4S, 7S)-4-isobutyl-2,5,10-trioxo-17-(3-phenylpropyl)-1-oxa-3,6,11-triazacycloheptadecan-7-yl) methanesulfonate] | 69.2 | – |
| CCCCCC1CCCCCNC(=O)CC[C@@H](C=O)NC(=O)[C@H](CC(C)C)NC(=O)O1 (stereo partly drawn) [Compound 21, (4S, 7S)-4-Isobutyl-2,5,10-trioxo-17-pentyl-1-oxa-3,6,11-triazacycloheptadecane-7-carbaldehyde] | 72.7 | Fold less active than compounds 13/25 (NV 3CLpro; Table 1): ~ 2 fold |
| O=C[C@@H]1CCC(=O)NCCCCCC(c2cccc(Cl)c2)OC(=O)N[C@@H](CC2CCCCC2)C(=O)N1 (stereo partly drawn) [14(major), (4S, 7S)-17-(3-Chlorophenyl)-4-(cyclohexylmethyl)-2,5,10-trioxo-1-oxa-3,6,11-triazacycloheptadecane-7-carbaldehyde] | 62.4 | – |
| CC(C)C[C@@H]1NC(=O)OC(c2cccc(Cl)c2)CCCCCONC(=O)CC[C@@H](C=O)NC1=O (single isomer, unassigned) [Compound 36A] | 68.3 | – |
| CC(C)C[C@@H]1NC(=O)OC(CCCc2ccccc2)CCCCCNC(=O)CC[C@@H](C=O)NC1=O (stereo partly drawn) [Compound 20, (4S, 7S)-4-Isobutyl-2,5,10-trioxo-17-(3-phenylpropyl)-1-oxa-3,6,11-triazacycloheptadecane-7-carbaldehyde] | 71.5 | – |
| CC(C)C[C@@H]1NC(=O)OC(c2cccc(Cl)c2)CCCCCONC(=O)CC[C@@H](C=O)NC1=O (single isomer, unassigned) [Compound 36B] | 73.8 | – |
| CCCCCC1CCCCCNC(=O)CC[C@@H](C(O)S(=O)(=O)[O-])NC(=O)[C@H](CC(C)C)NC(=O)O1.[Na+] (stereo partly drawn) [Compound 29, Sodium hydroxyl ((4S, 7S)-4-isobutyl-2,5,10-trioxo-17-pentyl-1-oxa-3,6,11-triazacycloheptadecan-7-yl) methanesulfonate] | 78.5 | Fold less active than compounds 13/25 (NV 3CLpro; Table 1): ~ 2 fold |
| CC(C)C[C@@H]1NC(=O)OC(c2cccc(Cl)c2)CCCCCNC(=O)CC[C@@H](C(O)S(=O)(=O)[O-])NC1=O.[Na+] (stereo partly drawn) [Compound 25, Sodium ((4S, 7S)-17-(3-chlorophenyl)-4-isobutyl-2,5,10-trioxo-1-oxa-3,6,11-triazacycloheptadecan-7-yl) (hydroxy) methanesulfonate] | >100 | – |
| CC(C)C[C@@H]1NC(=O)OC(Cc2ccccc2)CCCCCNC(=O)CC[C@@H](C=O)NC1=O (stereo partly drawn) [Compound 12, (4S, 7S)-17-Benzyl-4-isobutyl-2,5,10-trioxo-1-oxa-3,6,11-triazacycloheptadecane-7-carbaldehyde] | >100 | – |
| CC(C)C[C@@H]1NC(=O)OC(Cc2ccccc2)CC/C=C/CNC(=O)CC[C@@H](C=O)NC1=O (stereo partly drawn) [Compound 23, (4S, 7S, E)-17-Benzyl-4-isobutyl-2,5,10-trioxo-1-oxa-3,6,11-triazacycloheptadec-13-ene-7-carbaldehyde] | >100 | Fold more potent than compound 12 (NV 3CLpro; unsaturated linker versus saturated linker, Table 1): ~ 2 fold |
| CC(C)C[C@@H]1NC(=O)OC(c2cccc(Cl)c2)CCCCCCNC(=O)CC[C@@H](C=O)NC1=O (stereo partly drawn) [Compound 15, (4S, 7S)-18-(3-Chlorophenyl)-4-isobutyl-2,5,10-trioxo-1-oxa-3,6,11-triazacyclooctadecane-7-carbaldehyde] | 67.4 | – |
| CC(C)C[C@@H]1NC(=O)OC(c2cccc(Cl)c2)CCCCCNC(=O)CC[C@@H](C=O)NC1=O (stereo partly drawn) [Compound 13, (4S, 7S)-17-(3-Chlorophenyl)-4-isobutyl-2,5,10-trioxo-1-oxa-3,6,11-triazacycloheptadecane-7-carbaldehyde] | >100 | – |
| O=C[C@@H]1CCC(=O)NC/C=C/CCC(c2cccc(Cl)c2)OC(=O)N[C@@H](CC2CCCCC2)C(=O)N1 (stereo partly drawn) [Compound 24, (4S, 7S, E)-17-(3-Chlorophenyl)-4-(cyclohexylmethyl)-2,5,10-trioxo-1-oxa-3,6,11-triazacycloheptadec-13-ene-7-carbaldehyde] | 42.3 | – |
| CC(C)C[C@@H]1NC(=O)OC(c2ccccc2)CCCCCNC(=O)CC[C@@H](C=O)NC1=O (stereo partly drawn) [Compound 11, (4S, 7S)-4-Isobutyl-2,5,10-trioxo-17-phenyl-1-oxa-3,6,11-triazacycloheptadecane-7-carbaldehyde] | >100 | – |
| CC(C)C[C@@H]1NC(=O)OC(c2cccc(Cl)c2)CCCCCNC(=O)CC[C@@H](C(=O)C(=O)NC2CC2)NC1=O (stereo partly drawn) [Compound 31, 2-((4S, 7S)-17-(3-Chlorophenyl)-4-isobutyl-2,5,10-trioxo-1-oxa-3,6,11-triazacycloheptadecan-7-yl)-N-cyclopropyl-2-oxoacetamide] | 53.1 | – |
| O=C[C@@H]1CCC(=O)NCCCCCC(c2cccc(Cl)c2)OC(=O)N[C@@H](CC2CCCCC2)C(=O)N1 (stereo partly drawn) [14(minor), (4S, 7S)-17-(3-Chlorophenyl)-4-(cyclohexylmethyl)-2,5,10-trioxo-1-oxa-3,6,11-triazacycloheptadecane-7-carbaldehyde] | 45.3 | – |
| C[C@@H]1NC(=O)OC(c2cccc(Cl)c2)CCCCCCNC(=O)CC[C@@H](C=O)NC1=O (stereo partly drawn) [Compound 17, (4S, 7S)-18-(3-Chlorophenyl)-4-methyl-2,5,10-trioxo-1-oxa-3,6,11-triazacyclooctadecane-7-carbaldehyde] | >100 | – |
| O=C1CC[C@@H](C(O)S(=O)(=O)[O-])NC(=O)C2(CCCCC2)NC(=O)OC(c2cccc(Cl)c2)CCCCCCN1.[Na+] (stereo partly drawn) [Compound 27, Sodium ((21S)-10-(3-chlorophenyl)-8,18,23-trioxo-9-oxa-7,17,22-triazaspiro[5.17]tricosan-21-yl) (hydroxy) methanesulfonate] | 46.6 | Activity against NV 3CLpro and in cell based assays (in words) (NV 3CLpro): inactive |
